Consider 15 compounds from patent US7750049B2, “O-substituted-dibenzyl urea-derivatives as TRPV1 receptor antagonists” (Pharmeste S.R.L., priority 2006, dated 2010).

The target in one data set is T1, TRPV1 (Rattus norvegicus, UniProt O35433).
T1 construct: Ca^2+ Fluorescence Measurements in Cultured Rat Trigeminal Ganglia; endogenous in cells; host or cells: cultured rat trigeminal ganglion neurons (primary culture)
Put plainly: Ca2+ fluorescence measurements in cultured rat trigeminal ganglia (capsaicin-evoked [Ca2+]i mobilization). The class given is cell-based. The following applies: 30 nM capsaicin, rat trigeminal neuron cells; read-out: IC50 of inhibiting capsaicin-evoked [Ca2+]i mobilization. How it is done: The calibration curve was determined using a buffer containing Fura-2-AM-ester and definite concentrations of free Ca^2+. This curve was then used to convert the data obtained from F340/F380 ratio to [Ca^2+]i (nM) (Kudo, Y). The effects of pretreatments with compounds 6a-6m on the increase in [Ca^2]i produced by 30 nM capsaicin were studied.
Capsaicin (30 nM) increased [Ca^2+]i in the vast majority (95%) of rat trigeminal neuron cells, which were therefore identified as TRPV1-expressing neurons.

In a further data set the target is T2, vanilloid TRPV1 receptor (Rattus norvegicus, UniProt O35433).
T2 construct: the spinal cord was removed and disrupted using a Polytron tissue homogenizer; from tissue; host or cells: spinal cord of male Sprague-Dawley rats (membranes)
Put plainly: [3H]RTX radioligand binding assay in rat spinal cord membranes. The following applies: displacement of [3H]RTX (0.4 nM), 37° C., 60 min. The protocol: Male Sprague-Dawley rats with body weight between 250 to 350 g were used. For binding assays the rats were decapitated under anesthesia and the spinal cord was removed and disrupted using a Polytron tissue homogenizer in ice cold buffer containing 5 mM KCl, 5.8 mM NaCl, 0.75 mM CaCl2, 2 mM MgCl2, 320 mM sucrose, 10 mM Hepes, pH 8.6 (Szallasi and Blunberg, 1992; 1993). In competition experiments, the membranes were incubated at 37° C. for 60 min with [^3H]RTX (0.4 nM) and with increasing concentrations of test compounds in the range from 0.1 nM to 3 μM. Non-specific binding was evaluated in the presence of 1 μM RTX. Saturation and competition studies were analyzed with the Ligand program (Bradford, 1976; Munson and Rodbard, 1980).
Compounds 6a-6m displaced [^3H]RTX from its binding site in rat spinal cord membranes at low concentrations, as indicated by the Ki values reported in Table 1.
Background: Displacement assays read how much labelled ligand stays bound in the presence of the test substance.

Data set [1] can be described thus: Cytotoxicity on Hep G2 cells. In kind it is cell-based. The following applies: human. How it is done: (§1) LogD Values at pH=7.0 were calculated in silico, while the in vitro tests analysed: • metabolic stability in cryopreserved human hepatocytes; • cytotoxicity on Hep G2 cells; • cassette pharmacokinetics in rat.
The cells were cultured for 3 days, trypsinized and re-suspended in 20 ml of culture medium. The cells were then counted and diluted to obtain a final concentration suitable for seeding 40.000 cells/well in 96-well cell culture plates (200 μl/well).
The cells were seeded in columns 1 to 11 (column 12 contained medium without cells), then placed for 16-24 hours at 37° C. with 5% of CO2.

The conditions of data set [2]: value from Ref. 8 (Rami et al. 2006); cited from earlier work.
Data set [3] deals with capsaicin-induced secondary allodynia. Description: Capsaicin-induced secondary allodynia in rat. In kind it is in vivo. The following applies: 30 μmol/kg p.o., 2 hours prior to capsaicin, 90 min after capsaicin challenge. The protocol: Capsaicin (5 nmols/50 μl/paw) was injected in the plantar surface of the glabrous skin of the right paw of rats anesthetized with diethyl ether (Chaplan et al., 1994). Compounds 6c and 6d were orally administrated 2 hours prior to capsaicin injection. Tactile allodynia was evaluated 90 min after capsaicin challenge. In a more extended study, compounds 6c and 6d were tested against capsaicin-induced secondary allodynia in rats.

Data set [4] is described as follows: Preliminary cassette pharmacokinetic study in catheterized conscious rats. The class given is in vivo. The following applies: plasma; rat, oral, cassette dosing; read-out: Pharmacokinetics in Rat Oral t1/2. The protocol:
as §1
Compounds were administered together to rats. The compounds were stored at −20° C. when not used. The formulation, route of administration, plasma samples identification and pharmacokinetic analysis were performed according to standard protocols (Raynaud, F I et al, 2004; Manitpisitkul, P. et al., 2004; Singh S. et al., 2006).

A word on the IC50: it is the concentration needed to halve the response being measured. The Ki is the dissociation constant of the complex between target and ligand, obtained from inhibition or displacement. Usually melting point stands for the temperature, or range, at which the solid turns liquid.

T1 sequence (O35433 whole entry): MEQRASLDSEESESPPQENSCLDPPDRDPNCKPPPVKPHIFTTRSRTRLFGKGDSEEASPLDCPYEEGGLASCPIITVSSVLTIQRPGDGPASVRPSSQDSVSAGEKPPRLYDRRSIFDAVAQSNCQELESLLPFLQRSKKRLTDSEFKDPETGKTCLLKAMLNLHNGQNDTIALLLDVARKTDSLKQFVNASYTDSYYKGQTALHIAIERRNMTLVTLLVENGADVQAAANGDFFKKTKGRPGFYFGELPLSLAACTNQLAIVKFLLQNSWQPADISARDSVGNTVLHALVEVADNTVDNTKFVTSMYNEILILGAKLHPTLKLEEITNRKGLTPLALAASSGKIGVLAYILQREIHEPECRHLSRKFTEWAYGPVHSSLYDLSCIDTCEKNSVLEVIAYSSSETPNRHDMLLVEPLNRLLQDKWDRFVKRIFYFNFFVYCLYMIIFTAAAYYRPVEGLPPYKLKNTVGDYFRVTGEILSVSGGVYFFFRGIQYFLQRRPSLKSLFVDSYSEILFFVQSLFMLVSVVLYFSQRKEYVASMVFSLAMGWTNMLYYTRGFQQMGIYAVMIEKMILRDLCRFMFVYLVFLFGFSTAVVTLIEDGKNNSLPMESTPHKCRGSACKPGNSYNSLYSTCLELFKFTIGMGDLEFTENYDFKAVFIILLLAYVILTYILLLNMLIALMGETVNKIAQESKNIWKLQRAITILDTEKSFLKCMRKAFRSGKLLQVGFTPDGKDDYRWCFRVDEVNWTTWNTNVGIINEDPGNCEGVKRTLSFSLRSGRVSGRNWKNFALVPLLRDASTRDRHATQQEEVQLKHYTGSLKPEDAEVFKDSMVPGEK
T2 sequence (O35433 whole entry): as above

In the case of `COc1cc(CNC(=O)NCc2ccc(C(F)(F)F)cc2)c(Br)cc1OC[C@@H](O)CO` [(S)-(+)6d], at TRPV1, the IC50 was over 1000 nM.

`COc1cc(CNC(=O)NCc2ccc(C(C)(C)C)cc2)c(Cl)cc1OCCO` [Compound 6a, 1-[4-(2-hydroxyethoxy)-2-chloro-5-methoxybenzyl]-3-[4-(tert-butyl)-benzyl]urea] showed a Ki on vanilloid TRPV1 receptor of 175 nM. Also, the IC50 at TRPV1 came to 859 nM.

In turn, `COc1cc(CNC(=O)NCc2ccc(C(C)(C)C)cc2)c(Cl)cc1OCCCO` [Compound 6f] yielded a Ki on vanilloid TRPV1 receptor of 253 nM. Moreover, the IC50 on TRPV1 is 500 nM.

On vanilloid TRPV1 receptor, `COc1cc(CNC(=O)NCc2ccc(C(F)(F)F)cc2)c(-c2cccnc2)cc1OCC(O)CO` (stereo not shown) [Compound 6l, 1-[4-(2,3-dihydroxypropoxy)-2-(pyridin-3-yl)-5-methoxybenzyl]-3-[4-(trifluoromethyl)-benzyl]urea] came in with a Ki of 172 nM. The IC50 at TRPV1 was over 1000 nM.

As to `O=C(Nc1ccccc1Br)N[C@@H]1CCN(c2ccc(C(F)(F)F)cn2)C1` [SB-705498, reference compound], the IC50 in data set [1] came out at 20300 nM. For the same compound, the “Pharmacokinetics in Rat Oral t1/2” value in data set [2] is recorded as 180 ^Ref. 8 min.

Turning to `COc1cc(CNC(=O)NCc2ccc(C(F)(F)F)cc2)c(Cl)cc1OCCO` [Compound 6g, 1-[4-(2-hydroxyethoxy)-2-chloro-5-methoxybenzyl]-3-[4-(trifluoromethyl)-benzyl]urea], the Ki at vanilloid TRPV1 receptor was over 1000 nM. Further, at TRPV1, the IC50 came out at 164 nM.

On vanilloid TRPV1 receptor, `COc1cc(CNC(=O)NCc2ccc(C(F)(F)F)cc2)c(Cl)cc1OCCCO` [Compound 6e] came in with an inhibition constant Ki of over 1000 nM. Besides, at TRPV1, the IC50 is over 1000 nM.

`COc1cc(CNC(=O)NCc2ccc(C(F)(F)F)cc2)c(Cl)cc1OC[C@@H](O)CO` [(S)-(+)6c]: the IC50 on TRPV1 was over 1000 nM.

As to `COc1cc(CNC(=O)NCc2ccc(C(F)(F)F)cc2)c(-c2ccc(Cl)cc2)cc1OC[C@H](O)CO` [Compound 6m, 1-[4-(2,3-dihydroxypropoxy)-2-(4-chloro)phenyl-5-methoxybenzyl]-3-[4-(trifluoromethyl)-benzyl]urea], the melting point was 174 °C. Moreover, the Ki on vanilloid TRPV1 receptor stood at 117 nM.

Regarding `COc1cc(CNC(=O)NCc2ccc(C(F)(F)F)cc2)c(Cl)cc1OCC(O)CO` (racemic) [Compound 6c, 1-[4-(2,3-Dihydroxypropoxy)-2-chloro-5-methoxybenzyl]-3-[4-(trifluoromethyl)-benzyl]urea], affinity on vanilloid TRPV1 receptor was put at a Ki of 60 nM. The IC50 on TRPV1 was 10.2 nM; in data set [1], 52000 nM. Moreover, in data set [3], the “% of inhibition of the pro-allodinic effect of capsaicin” value was determined as 53.1%. The half-life in data set [4] is 1.3 h.

As to `COc1cc(CNC(=O)NCc2ccc(C(F)(F)F)cc2)c(Cl)cc1OC[C@H](O)CO` [(R)-(−)6c, 1-[4-((R)-(−)-2,3-dihydroxypropoxy)-2-chloro-5-methoxybenzyl]-3-[4-(trifluoromethyl)-benzyl]urea], the IC50 at TRPV1 was 7 nM. Besides, in data set [4], the half-life was 7.7 h.

As to `COc1cc(CNC(=O)NCc2ccc(C(F)(F)F)cc2)c(-c2ccccc2)cc1OCC(O)CO` (stereo not shown) [Compound 6i, 1-[4-(2,3-dihydroxypropoxy)-2-phenyl-5-methoxybenzyl]-3-[4-(trifluoromethyl)-benzyl]urea], the Ki on vanilloid TRPV1 receptor was found to be 273 nM. The half-inhibitory concentration (IC50) on TRPV1 is over 1000 nM.

On to `COc1cc(CNC(=O)NCc2ccc(C(F)(F)F)cc2)c(Br)cc1OC[C@H](O)CO` [(R)-(−)6d, 1-[4-((R)-(−)-2,3-dihydroxypropoxy)-2-bromo-5-methoxybenzyl]-3-[4-(trifluoromethyl)-benzyl]urea], for which, at TRPV1, the IC50 was 53 nM. In data set [4], the half-life came out at 4.43 h.

For `COc1cc(CNC(=O)NCc2ccc(C(F)(F)F)cc2)c(Br)cc1OCCO` [Compound 6h, 1-[4-(2-Hydroxyethoxy)-2-bromo-5-methoxybenzyl]-3-[4-(trifluoromethyl)-benzyl]urea], the Ki on vanilloid TRPV1 receptor was determined as 150 nM. In addition, the IC50 on TRPV1 was determined as 119 nM.

Turning to `COc1cc(CNC(=O)NCc2ccc(C(F)(F)F)cc2)c(Br)cc1OCC(O)CO` (racemic) [Compound 6d, 1-[4-(2,3-Dihydroxypropoxy)-2-bromo-5-methoxybenzyl]-3-[4-(trifluoromethyl)-benzyl]urea], the Ki at vanilloid TRPV1 receptor is 86 nM. Also, the IC50 came out at 80 nM on TRPV1 and 70000 nM in data set [1]. In data set [3], the “% of inhibition of the pro-allodinic effect of capsaicin” value stood at 47.9%. The half-life in data set [4] was found to be 1.08 h.
